In patent US20060069132A1, “Azolecarboxamide herbicides” (priority 2004, published 2006):

Columns and labels:
yellow nutsedge = assay: Test C pre-/postemergence herbicide test; format: in vivo, Cyperus esculentus
How it was run: (§1)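 Visual injury scores run from 0 (no effect) to 100 (complete control), assessed relative to untreated controls 12 to 14 days after treatment in the greenhouse. Chemicals were formulated in a non-phytotoxic solvent mixture with surfactant and applied to soil after planting or to emerged plants at the 1- to 4-leaf stage.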

velvetleaf = assay: Test C pre-/postemergence herbicide test; format: in vivo, Abutilon theophrasti
How it was run: as §1

Surinam grass = assay: Test C pre-/postemergence herbicide test; format: in vivo, Urochloa decumbens
How it was run: as §1

large crabgrass = assay: Test C pre-/postemergence herbicide test; format: in vivo, Digitaria sanguinalis
How it was run: as §1

corn [1] = assay: Test C pre-/postemergence herbicide test; format: in vivo, Zea mays
How it was run: as §1

soybean = assay: Test C pre-/postemergence herbicide test; format: in vivo, Glycine max
How it was run: as §1

wild oat = assay: Test B postemergence herbicide test; format: in vivo, Avena fatua; conditions: postemergence, visual rating, scale 0 (no effect) to 100 (complete control)
How it was run: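 Postemergence plants were sprayed with formulated test chemicals at 2 to 18 cm height (1- to 4-leaf stage); paddy species were grown to the 2-leaf stage. After 13 to 15 days in a greenhouse, injury was rated visually against untreated controls on a 0–100 scale (0 = no effect, 100 = complete control).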

johnsongrass = assay: Test C pre-/postemergence herbicide test; format: in vivo, Sorghum halepense
How it was run: as §1

pigweed = assay: Test C pre-/postemergence herbicide test; format: in vivo, Amaranthus retroflexus
How it was run: as §1

corn [2] = assay: Test B pre-/postemergence herbicide test; format: in vivo, Zea mays; conditions: for Plant response rating, Corn: preemergence; for Corn plant response rating: postemergence, visual rating, scale 0 (no effect) to 100 (complete control)
How it was run: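 Seeds were planted and treated preemergence with compounds formulated in a non-phytotoxic solvent mixture containing surfactant, while plants at the 1- to 4-leaf stage (2 to 18 cm) received postemergence sprays. Flooded paddy plants were grown to the 2-leaf stage. After 13 to 15 days in a greenhouse, injury was visually rated 0–100 against untreated controls.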

[3] = 125 g ai/ha, scale 0 (no effect) to 100 (complete control), visual, 12 to 14 days, preemergence
[4] = Postemergence, 250 g ai/ha, scale 0 to 100, 0 no effect, 100 complete control
[5] = postemergence, 125 g ai/ha, scale 0 to 100
[6] = postemergence, 62 g ai/ha, scale 0 to 100
[7] = 250 g ai/ha, scale 0 to 100 (0 no effect, 100 complete control), visual, 12 to 14 days, preemergence
[8] = 500 g ai/ha, visual rating 0-100, 0 no effect, 100 complete control
[9] = 125 g ai/ha, 0 to 100 scale, 0 is no effect, 100 is complete control
[10] = Preemergence, 500 g ai/ha, scale 0 to 100, 0 no effect, 100 complete control

In the case of `CCn1nc(C(C)(C)C)cc1C(=O)Nc1cccc(C#N)c1` [Compound 139], the “Plant response rating, Nutsedge, Yellow” value (yellow nutsedge; 31 g ai/ha, scale 0 to 100, last section of Table C, preemergence) is reported as 0, the “Plant response rating (0 = no effect, 100 = complete control), Nutsedge, Yellow” value (yellow nutsedge; 62 g ai/ha, preemergence) is reported as 0 and the “Plant response rating, Nutsedge, Yellow” value (yellow nutsedge; [3]) is reported as 0. For the same compound, the “Plant response rating, Nutsedge, Yellow” value (yellow nutsedge; [4]) was 0, the “Plant response rating, Nutsedge, Yellow” value (yellow nutsedge; [5]) was 0 and the “Plant response rating, Nutsedge, Yellow” value (yellow nutsedge; [6]) was 0. The “Plant response rating, Velvetleaf” value (velvetleaf; [3]) was 30, the “Plant response rating, Velvetleaf” value (velvetleaf; [4]) was 50 and the “Plant response rating, Velvetleaf” value (velvetleaf; [5]) was 50. For the same compound, the “Plant response rating, Velvetleaf” value (velvetleaf; [6]) was 30, the “Plant response rating (0 = no effect, 100 = complete control), Surinam Grass” value (Surinam grass; 62 g ai/ha, preemergence) was 0 and the “Plant response rating, Surinam Grass” value (Surinam grass; [3]) was 20. The “Plant response rating, Surinam Grass” value (Surinam grass; [4]) was 0, the “Plant response rating, Surinam Grass” value (Surinam grass; [5]) was 0 and the “Plant response rating, Surinam Grass” value (Surinam grass; [6]) was 0. For the same compound, the “Plant response rating (0 = no effect, 100 = complete control), Crabgrass, Large” value (large crabgrass; 62 g ai/ha, preemergence) was 40, the “Plant response rating, Crabgrass, Large” value (large crabgrass; [3]) was 100 and the “Plant response rating, Crabgrass, Large” value (large crabgrass; [7]) was 100. The “Plant response rating, Crabgrass, Large” value (large crabgrass; [4]) was 0, the “Plant response rating, Crabgrass, Large” value (large crabgrass; [5]) was 0 and the “Plant response rating, Crabgrass, Large” value (large crabgrass; [6]) was 0. For the same compound, the “Plant response rating (0 = no effect, 100 = complete control), Corn” value (corn [1]; 62 g ai/ha, preemergence) was 0, the “Plant response rating, Corn” value (corn [1]; [3]) was 0 and the “Plant response rating, Corn” value (corn [1]; [7]) was 15. The “Plant response rating, Corn” value (corn [1]; [4]) was 10, the “Plant response rating, Corn” value (corn [1]; [5]) was 10 and the “Plant response rating, Corn” value (corn [1]; [6]) was 0. For the same compound, the “Plant response rating, Soybean” value (soybean; [3]) was 10, the “Plant response rating, Soybean” value (soybean; [4]) was 35 and the “Plant response rating, Soybean” value (soybean; [5]) was 30. The “Plant response rating, Soybean” value (soybean; [6]) was 20, the “Oat, Wild plant response rating” value (wild oat; 125 g ai/ha) was 10 and the “Oat, Wild plant response rating” value (wild oat; 500 g ai/ha) was 10. The “Plant response rating (0 = no effect, 100 = complete control), Johnsongrass” value (johnsongrass; 62 g ai/ha, preemergence) was 20, the “Plant response rating, Johnsongrass” value (johnsongrass; [3]) was 30 and the “Plant response rating, Johnsongrass” value (johnsongrass; [4]) was 0. The “Plant response rating, Johnsongrass” value (johnsongrass; [5]) was 0, the “Plant response rating, Johnsongrass” value (johnsongrass; [6]) was 0 and the “Plant response rating (0 = no effect, 100 = complete control), Pigweed” value (pigweed; 62 g ai/ha, preemergence) was 100. For the same compound, the “Plant response rating, Pigweed” value (pigweed; [3]) was 100, the “Plant response rating, Pigweed” value (pigweed; [4]) was 80 and the “Plant response rating, Pigweed” value (pigweed; [5]) was 65. The “Plant response rating, Pigweed” value (pigweed; [6]) was 50, the “Plant response rating, Corn” value (corn [2]; [8]) was 40 and the “Corn plant response rating” value (corn [2]; 125 g ai/ha) was 10. For the same compound, the “Corn plant response rating” value (corn [2]; 500 g ai/ha) was 20 and the “Plant response rating, Corn” value (corn [2]; [9]) was 10.

With `CCn1nc(C(C)(C)C)cc1C(=O)Nc1cc(C#N)ccc1F` [Compound 140] the “Plant response rating (0 = no effect, 100 = complete control), Nutsedge, Yellow” value (yellow nutsedge; 62 g ai/ha, preemergence) was 0, the “Plant response rating, Nutsedge, Yellow” value (yellow nutsedge; [3]) was 0 and the “Nutsedge, Yellow plant response rating” value (yellow nutsedge; [10]) was 0. For the same compound, the “Plant response rating, Velvetleaf” value (velvetleaf; [3]) was 0, the “Velvetleaf plant response rating” value (velvetleaf; [10]) was 20 and the “Plant response rating (0 = no effect, 100 = complete control), Surinam Grass” value (Surinam grass; 62 g ai/ha, preemergence) was 0. The “Plant response rating, Surinam Grass” value (Surinam grass; [3]) was 0, the “Surinam Grass plant response rating” value (Surinam grass; [10]) was 70 and the “Plant response rating (0 = no effect, 100 = complete control), Crabgrass, Large” value (large crabgrass; 62 g ai/ha, preemergence) was 0. For the same compound, the “Plant response rating, Crabgrass, Large” value (large crabgrass; [3]) was 65, the “Plant response rating, Crabgrass, Large” value (large crabgrass; [7]) was 75 and the “Crabgrass, Large plant response rating” value (large crabgrass; [10]) was 100. The “Plant response rating (0 = no effect, 100 = complete control), Corn” value (corn [1]; 62 g ai/ha, preemergence) was 0, the “Plant response rating, Corn” value (corn [1]; [3]) was 0 and the “Plant response rating, Corn” value (corn [1]; [7]) was 0. For the same compound, the “Corn plant response rating” value (corn [1]; [10]) was 0, the “Plant response rating (0 = no effect, 100 = complete control), Soybean” value (soybean; 62 g ai/ha, preemergence) was 0 and the “Soybean plant response rating” value (soybean; [10]) was 0. For the same compound, the “Oat, Wild plant response rating” value (wild oat; 125 g ai/ha) was 0, the “Oat, Wild plant response rating” value (wild oat; 500 g ai/ha) was 0 and the “Plant response rating (0 = no effect, 100 = complete control), Johnsongrass” value (johnsongrass; 62 g ai/ha, preemergence) was 0. The “Plant response rating, Johnsongrass” value (johnsongrass; [3]) was 45, the “Johnsongrass plant response rating” value (johnsongrass; [10]) was 75 and the “Plant response rating (0 = no effect, 100 = complete control), Pigweed” value (pigweed; 62 g ai/ha, preemergence) was 100. The “Plant response rating, Pigweed” value (pigweed; [3]) was 100, the “Pigweed plant response rating” value (pigweed; [10]) was 100 and the “Plant response rating, Corn” value (corn [2]; [8]) was 0. For the same compound, the “Corn plant response rating” value (corn [2]; 125 g ai/ha) was 0, the “Corn plant response rating” value (corn [2]; 500 g ai/ha) was 10 and the “Plant response rating, Corn” value (corn [2]; [9]) was 0.
